From patent publication US20220023271A1, “COMPOSITION FOR PREVENTING OR TREATING CELLULAR SENESCENCE-RELATED DISEASES COMPRISING ZOTAROLIMUS AS ACTIVE INGREDIENT” (RESEARCH COOPERATION FOUNDATION OF YEUNGNAM UNIVERSITY, priority 2018, published 2022)

Assays:
Format in all cases: cell-based
[1] = tested on: human dermal fibroblasts (HDF); assay: SAβG activity staining in senescent human fibroblasts; conditions: 4 days; for SAβG activity: 100 nM
Method: Each cell was treated in a serum-free culture solution containing 0.5 μM doxorubicin for 4 hours. After washing the cells with a serum-free culture solution, the cells were cultured for 4 days in a culture solution containing 10% FBS, and then cellular aging was confirmed by staining with senescence-associated beta galactosidase (SAβG). After dispensing 2×10^5 cells in a 100 mm culture dish, they were cultured in a 37° C., 5% CO2 incubator. When the cells grew to 80-90% in the culture dish, the cells were removed by treatment with trypsin-EDTA, and the number of cells was measured, and the cell population doubling time (PDT) was measured. By successively subculturing the cells in the same process as described above, replication aging was induced. PDT of young fibroblasts was 36 hours, PDT of replicative senescent fibroblasts was 12 days, PDT of young vascular endothelial cells was 24 hours, and PDT of replicative senescent vascular endothelial cells was 7 days. After each sample was dissolved in DMSO, young cells, replicative senescent cells, and premature senescent cells treated with doxorubicin were treated with 100 nM zotarolimus, 100 nM rapamycin, 100 nM ABT263, respectively. After incubation for 4 days in a 37° C., 5% CO2 incubator, the degree of cell growth was confirmed by CCK-8 analysis, the degree of cellular aging was confirmed by senescence-related beta-galactosidase (SAβG) staining, The cells were washed with 1× phosphate buffer solution, and fixed with a phosphate buffer solution containing 3.7% (v/v) paraformaldehyde. After adding 1 mg/ml 5-bromo-4-chloro-3-indolyl-6-D-galactoside, 40 mM citric acid-sodium phosphate (pH 6.0), 5 mM potassium ferricyanide, 5 mM potassium ferrocyanide, 150 mM NaCl, and 2 mM MgCl2 solution, it was reacted at 37° C. for 18 hours. It was stained with eosin as a control stain. Cells stained blue in the cytoplasm were identified using an optical microscope. Human fibroblasts were treated with doxorubicin to induce early cellular senescence. […]

[2] = tested on: human umbilical vascular endothelial cells (HUVEC); assay: CCK-8 cell growth analysis in vascular endothelial cells
Method: Each cell was treated in a serum-free culture solution containing 0.5 μM doxorubicin for 4 hours. After washing the cells with a serum-free culture solution, the cells were cultured for 4 days in a culture solution containing 10% FBS, and then cellular aging was confirmed by staining with senescence-associated beta galactosidase (SAβG). After dispensing 2×10^5 cells in a 100 mm culture dish, they were cultured in a 37° C., 5% CO2 incubator. When the cells grew to 80-90% in the culture dish, the cells were removed by treatment with trypsin-EDTA, and the number of cells was measured, and the cell population doubling time (PDT) was measured. After each sample was dissolved in DMSO, young cells, replicative senescent cells, and premature senescent cells treated with doxorubicin were treated with 100 nM zotarolimus, 100 nM rapamycin, 100 nM ABT263, respectively. […] Then, the absorbance was measured at 450 nm using a microplate reader. The degree of cell growth was expressed as a relative value for the absorbance of the control group treated with only DMSO as 100%. […]

[3] = tested on: human retinal pigmented epithelial cells (ARPE-19); assay: SAβG activity staining in senescent retinal pigmented epithelial cells; conditions: premature senescent retinal pigmented epithelial cells by doxorubicin; 100 nM, 4 days; vs DMSO-treated group; p<0.01
Method: Each cell was treated in a serum-free culture solution containing 0.5 μM doxorubicin for 4 hours. After washing the cells with a serum-free culture solution, the cells were cultured for 4 days in a culture solution containing 10% FBS, and then cellular aging was confirmed by staining with senescence-associated beta galactosidase (SAβG). After each sample was dissolved in DMSO, young cells, replicative senescent cells, and premature senescent cells treated with doxorubicin were treated with 100 nM zotarolimus, 100 nM rapamycin, 100 nM ABT263, respectively. After incubation for 4 days in a 37° C., 5% CO2 incubator, the degree of cell growth was confirmed by CCK-8 analysis, the degree of cellular aging was confirmed by senescence-related beta-galactosidase (SAβG) staining, The cells were washed with 1× phosphate buffer solution, and fixed with a phosphate buffer solution containing 3.7% (v/v) paraformaldehyde. After adding 1 mg/ml 5-bromo-4-chloro-3-indolyl-6-D-galactoside, 40 mM citric acid-sodium phosphate (pH 6.0), 5 mM potassium ferricyanide, 5 mM potassium ferrocyanide, 150 mM NaCl, and 2 mM MgCl2 solution, it was reacted at 37° C. for 18 hours. It was stained with eosin as a control stain. Cells stained blue in the cytoplasm were identified using an optical microscope. […]

CO[C@H]1C[C@@H]2CC[C@@H](C)[C@@](O)(O2)C(=O)C(=O)N2CCCC[C@H]2C(=O)O[C@H]([C@H](C)C[C@@H]2CC[C@H](n3cnnn3)[C@H](OC)C2)CC(=O)[C@H](C)/C=C(\C)[C@@H](O)[C@@H](OC)C(=O)[C@H](C)C[C@H](C)/C=C/C=C/C=C/1C [zotarolimus]
SAβG activity ([1]; premature senescent fibroblasts by doxorubicin, vs DMSO-treated group): decreased compared to the DMSO-treated group | SAβG activity compared with rapamycin ([1]; replicative senescent fibroblasts, 100 nM each, p<0.05): significantly reduced than that of rapamycin | SAβG activity ([1]; replicative senescent fibroblasts, vs DMSO, p<0.01): significantly reduced | cell growth (CCK-8) ([2]; premature senescent HUVEC by doxorubicin, 100 nM, 4 days, vs DMSO, p<0.01): significantly reduced | cell growth with increasing concentration of zotarolimus ([2]; young vs replicative senescent HUVEC): decreased compared to the young cells in a concentration-dependent manner | SAβG activity staining [3]: significantly decreased
